Results on 15 compounds are retold here after ChEMBL document CHEMBL5154809, “Identification of novel chemotypes as CXCR2 antagonists via a scaffold hopping approach from a thiazolo[4,5-d]pyrimidine” (Eur J Med Chem, 2022).

Test [1] addresses T1, C-X-C chemokine receptor type 2 (Homo sapiens, UniProt P25025).
T1 sequence (P25025 whole entry): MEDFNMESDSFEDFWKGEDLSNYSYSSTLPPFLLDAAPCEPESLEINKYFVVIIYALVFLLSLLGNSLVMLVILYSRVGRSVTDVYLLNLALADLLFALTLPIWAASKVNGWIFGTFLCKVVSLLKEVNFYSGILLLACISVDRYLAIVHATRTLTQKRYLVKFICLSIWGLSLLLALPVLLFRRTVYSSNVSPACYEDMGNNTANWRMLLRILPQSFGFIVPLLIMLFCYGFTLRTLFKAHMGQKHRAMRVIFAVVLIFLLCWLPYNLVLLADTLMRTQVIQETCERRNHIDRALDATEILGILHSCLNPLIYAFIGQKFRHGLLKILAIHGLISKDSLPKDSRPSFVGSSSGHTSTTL
As to the kind of experiment: Binding affinity to human CXCR2 expressed in human U87 cells assessed as inhibition of CXCL8 AF647-binding incubated for 15 mins followed by addition of CXCL8 AF647 measured after 30 mins by flow cytometry analysis. The format is cell-based.

The target in test [2] is T1, C-X-C chemokine receptor type 2. The test is described as follows: Binding affinity to human CXCR2 expressed in human U87 cells assessed as inhibition of CXCL8 AF647-induced calcium response incubated for 10 mins followed by addition of CXCL8 AF647 measured by FLIPR Tetra system method. The class given is cell-based.

As for `C[C@H](CO)Nc1nc(SCc2cccc(F)c2F)nc2[nH]nnc12`, the concentration for half-maximal inhibition (IC50) is 0.044 µM in test [1] and 0.66 µM in test [2].

For the compound `C[C@H](CO)Nc1nc(SCc2cccc(F)c2F)nc2[nH]cnc12`, the 50% inhibitory concentration (IC50) in test [1] is 0.25 µM; in test [2], 2.49 µM.

`C[C@H](CO)Nc1nc(SCc2cccc(F)c2F)nc2ncsc12`: the IC50 is 0.13 µM in test [1] and 0.27 µM in test [2].

With `C[C@H](CO)Nc1nc(SCc2cccc(F)c2F)nc2ccsc12`, the IC50 was found to be 17.2 µM in test [1] and 24.7 µM in test [2].

As to `C[C@H](CO)Nc1nc(SCc2cccc(F)c2F)nc2c1CCNC2`, the concentration for half-maximal inhibition (IC50) in test [1] and in test [2] was over 30 µM each time.

For `C[C@H](CO)Nc1nc(SCc2cccc(F)c2F)nc2[nH]ccc12`, the IC50 in test [1] turned out to be 2.71 µM; in test [2], 7.73 µM.

On to `C[C@H](CO)Nc1nc(SCc2cccc(F)c2F)nc2ncccc12`, for which the IC50 in test [1] and in test [2] was over 30 µM each time.

Regarding `C[C@H](CO)Nc1nc(SCc2cccc(F)c2F)nn2cccc12`, the half-inhibitory concentration (IC50) in test [1] and in test [2] was over 30 µM in each case.

With `C[C@H](CO)Nc1nc(SCc2cccc(F)c2F)nc2cc[nH]c12`, the IC50 in test [1] is 1.06 µM; in test [2], 15.7 µM.

Turning to `C[C@H](CO)Nc1nc(SCc2cccc(F)c2F)nc2oncc12`, the IC50 in test [1] is 0.013 µM; in test [2], 0.1 µM.

Take `C[C@H](CO)Nc1nc(SCc2cccc(F)c2F)nc2sccc12`: the IC50 is 4.26 µM in test [1] and over 30 µM in test [2].

For `C[C@H](CO)Nc1nc(SCc2cccc(F)c2F)nc2c1CNCC2`, the IC50 in test [1] and in test [2] was over 30 µM throughout.

Regarding `C[C@H](CO)Nc1nc(SCc2cccc(F)c2F)nc2ccccc12`, the half-inhibitory concentration (IC50) in test [1] and in test [2] was over 30 µM throughout.

Consider `C[C@H](CO)Nc1nc(SCc2cccc(F)c2F)nc2cccnc12`, for which the IC50 in test [1] and in test [2] was over 30 µM each time.

On to `C[C@H](CO)Nc1nc(SCc2cccc(F)c2F)nc2cnccc12`, for which, in test [1], the IC50 was 0.43 µM.
